Assay results taken from PMC9897788, “Design, synthesis and cytotoxic evaluation of novel bis-thiazole derivatives as preferential Pim1 kinase inhibitors with in vivo and in silico study” (Journal of Enzyme Inhibition and Medicinal Chemistry, 2023).

Tests used:
Pim1 gene = system: Pim1 gene; design: method as in PMID 34458233; conditions: quantitative RT-PCR; cited from earlier work
leukaemia = system: leukaemia; design: method as in PMID 20036563, PMID 26890114; conditions: against leukaemia; read-out: antitumor activity IC50; cited from earlier work
rat glioma = system: rat glioma; design: method as in PMID 20036563, PMID 26890114; conditions: against rat glioma; read-out: antitumor activity IC50; cited from earlier work
HepG2 = system: HepG2; design: method as in PMID 20036563, PMID 26890114; conditions: cell line not clearly printed, probably HepG2; read-out: antitumor activity IC50; cited from earlier work
Ehrlich solid carcinoma = experiment: In vivo cytotoxicity study, Ehrlich solid carcinoma model; design: species or system male Swiss albino mice; conditions: i.p. once weekly for 3 weeks, 8b 1 mg/kg, 3b 1.4 mg/kg, doxorubicin 2 mg/kg; for VEGF expression by immunohistochemistry / caspase-3 expression by immunohistochemistry: Ehrlich solid tumour tissue; for Histopathological examination of Ehrlich solid tumour (H&E): mice
Protocol: The National Cancer Institute (Cairo, Egypt) provided the 48 male Swiss albino mice utilised in this study, which ranged in weight from 25 to 30 g. Prior to the experiment, mice were given a week to settle into their new environment. A constant 23 °C temperature, 60% humidity, and a 12/12 light/dark cycle were maintained in stainless steel cages. Each cage housed five mice with a plenty of nourishing food and refreshing water were served. This in vivo study was approved from the ethical committee of the Azhar University, Faculty of Medicine, Egypt.
A female mouse with an 8-day-old ascetic tumour was obtained from the National Cancer Institute on the day of induction, and Ehrlich ascites carcinoma (EAC) cells were isolated from the ascetic fluid of the animal (day 0). Then, regular saline was used to dilute the ascetic fluid (1:10). Each mouse received a subcutaneous injection of 0.2 ml of ascetic fluid containing 2.5 × 10^6 EAC cells in the right thigh of the hind limb to induce Ehrlich solid-phase cancer.
On day 11 following ESC inoculation, tumour formation was observed as a solid mass expanding in the right thigh of each animal. The mice were then randomly divided into four groups (n = 6) • Group (1) acted as the […] control group and mice received an i.p. DMSO (2 mg/kg/once weekly) for 3 weeks. • Group (2) (Doxorubicin Group) mice received an i.p. dose of doxorubicin (2 mg/kg/once weekly) for 3 weeks. • Group (3) mice were given an i.p. dose of 8b compound (1 mg/kg/once weekly) for 3 weeks, • Group (4) mice were given an i.p. dose of 3b compound (1.4 mg/kg/once weekly) for 3 weeks.
Two days after the last dose of therapy, blood was drawn from the mice’s orbital canthus, and serum was separated and stored at −80 °C for upcoming biochemical investigations. Following the cervical dislocation method of euthanasia, tumour samples from each mouse were collected and preserved in neutral buffered formalin at a 10% concentration for immunohistochemistry and histopathology studies. Histological preparations were performed according to the reported method. Slices of Ehrlich tumour were cut to a thickness of 3–4 mm before being fixed in 10% neutral buffered formalin (10% NBF), dehydrated through a series of ethanol solutions, cleaned in xylene, and finally embedded in paraffin. To examine the overall tissue architecture, sections ([…]) thick were cut from paraffin blocks using a microtome and stained with haematoxylin and eosin. We used a Leica microscope (CH9435 Hee56rbrugg) to look at H&E-stained tissue sections (Leica Microsystems, Switzerland).
The avidin–biotin–peroxidase complex (ABC) method was used to do immunohistochemistry on paraffin sections that were put on positively charged slides. Rabbit Anti-VEGF Receptor 2 Polyclonal Antibody (Elabscience Cat# E-AB-63481, Dil.: 1:100) and Rabbit Monoclonal anti-caspase-3 antibody, active (cleaved) form (Sigma Aldrich Catalog # AB3623)[41], were utilised during this IHC assessment. Each group’s sections were treated with the previously specified antibodies, after which the ABC technique reagents (Vectastain ABC-HRP kit, Vector labs) were applied. To locate the antigen–antibody combination, marker expression was stained with diaminobenzidine (DAB, manufactured by Sigma) and labelled with peroxidase. In order to conduct negative controls, non-immune serum was substituted for the primary or secondary antibodies. IHC-stained sections were assessed using a Leica (CH9435 Hee56sbrugg) microscope (Leica Microsystems, Switzerland).
Using one-way analysis of variance (ANOVA) followed by Tukey’s post-hoc test, the difference between experimental groups was analysed. All data are presented as mean ± standard deviation (SD). All comparisons were judged statistically significant when the p values ≤ 0.05. ImageJ (NIH Image J system, Bethesda, MD) was used for the analysis of immunohistochemistry photos.

Pim2 = system: Pim2; design: method as in PMID 25575657; conditions: cited from earlier work
Pim3 = system: Pim3; design: method as in PMID 25575657; conditions: cited from earlier work
Pim1 = system: Pim1; design: method as in PMID 25575657; conditions: cited from earlier work

Structure (SMILES): Cc1[nH]/c(=N/N=C2CCC(=N/N=c3/[nH]c(C)c(/N=N/c4ccccc4Cl)s3)CC2)sc1/N=N/c1ccccc1Cl [IXc]
- fold of change in Pim1 kinase activity (mRNA expression of Pim1 gene) (Pim1 gene): 0.3 fold

Structure (SMILES): Cc1sc(=N)n(-c2cccc(-n3c(-c4ccc(Cl)cc4)c(C)sc3=N)c2)c1-c1ccc(Cl)cc1 [VI]
- IC50 (leukaemia): 1.46 µM

Structure (SMILES): COc1cc(-c2ccc(Nc3nc(-c4ccc(Br)cc4)cs3)c(OC)c2)ccc1Nc1nc(-c2ccc(Br)cc2)cs1 [III]
- IC50 (rat glioma): 15.7 µM

Structure (SMILES): CNc1nc(C)c(/C(C)=N\c2nc(C)c(/N=N/c3ccccc3)s2)s1 [IV]
- IC50 (HepG2): 13.2 µM

Structure (SMILES): COc1cccc2c1C(=O)c1c(O)c3c(c(O)c1C2=O)C[C@@](O)(C(=O)CO)C[C@@H]3O[C@H]1C[C@H](N)[C@H](O)[C@H](C)O1 [Doxorubicin, doxorubicin, reference compound]
- VEGF expression by immunohistochemistry (Ehrlich solid carcinoma): low expression of VEGF
- caspase-3 expression by immunohistochemistry (Ehrlich solid carcinoma): moderate caspase-3 expression
- VEGF expression by immunohistochemistry (Ehrlich solid carcinoma; listed as DOX): moderate
- caspase-3 expression by immunohistochemistry (Ehrlich solid carcinoma; listed as DOX): positive caspase3 immunoreactivity
- Histopathological examination of Ehrlich solid tumour (H&E) (Ehrlich solid carcinoma): small clusters of cancerous cells
- Histopathological examination of Ehrlich solid tumour (H&E) (Ehrlich solid carcinoma; listed as doxorubicin): large region of necrotic muscle tissue surrounded by small clusters of cancerous cells

Structure (SMILES): Cc1[nH]/c(=N/N=C2CCC(=N/N=c3/[nH]c(C)c(/N=N/c4ccccc4)s3)CC2)sc1/N=N/c1ccccc1 [IXa]
- fold of change in Pim1 kinase activity (mRNA expression of Pim1 gene) (Pim1 gene): 0.4 fold

Structure (SMILES): O=C(Nc1cnccc1OC1CCNCC1)c1csc(-c2c(F)cccc2F)n1 [VIIIa]
- IC50 (Pim2): 0.018 µM
- IC50 (Pim3): 0.001 µM
- IC50 (Pim1): 0.001 µM

Structure (SMILES): O=C(Nc1cnccc1OC1CCCCC1)c1csc(-c2c(F)cccc2F)n1 [VIIIb]
- IC50 (Pim2): 0.25 µM
- IC50 (Pim1): 0.001 µM

Structure (SMILES): Cc1ccc(/N=N/c2s/c(=N\N=C3CCC(=N/N=c4/[nH]c(C)c(/N=N/c5ccc(C)cc5)s4)CC3)[nH]c2C)cc1 [IXb]
- fold of change in Pim1 kinase activity (mRNA expression of Pim1 gene) (Pim1 gene): 0.5 fold
